We go through 38 molecules from US9296751B1, “Indolizino[3,2-c]quinoline derivatives, pharmaceutically acceptable salt thereof, preparation method thereof and pharmaceutical composition for treatment of cystic fibrosis containing the same as active ingredient” (INDUSTRY-ACADEMIC COOPERATION FOUNDATION, YONSEI UNIVERSITY, priority 2014, dated 2016).

The target of data set [1] is T1, human cystic fibrosis conductance transmembrane regulator (CFTR) (Homo sapiens, UniProt P13569).
T1 construct: expressed in transfected cells; host or cells: FRT cells (Fischer rat thyroid epithelial cells)
T1 sequence (P13569 whole entry): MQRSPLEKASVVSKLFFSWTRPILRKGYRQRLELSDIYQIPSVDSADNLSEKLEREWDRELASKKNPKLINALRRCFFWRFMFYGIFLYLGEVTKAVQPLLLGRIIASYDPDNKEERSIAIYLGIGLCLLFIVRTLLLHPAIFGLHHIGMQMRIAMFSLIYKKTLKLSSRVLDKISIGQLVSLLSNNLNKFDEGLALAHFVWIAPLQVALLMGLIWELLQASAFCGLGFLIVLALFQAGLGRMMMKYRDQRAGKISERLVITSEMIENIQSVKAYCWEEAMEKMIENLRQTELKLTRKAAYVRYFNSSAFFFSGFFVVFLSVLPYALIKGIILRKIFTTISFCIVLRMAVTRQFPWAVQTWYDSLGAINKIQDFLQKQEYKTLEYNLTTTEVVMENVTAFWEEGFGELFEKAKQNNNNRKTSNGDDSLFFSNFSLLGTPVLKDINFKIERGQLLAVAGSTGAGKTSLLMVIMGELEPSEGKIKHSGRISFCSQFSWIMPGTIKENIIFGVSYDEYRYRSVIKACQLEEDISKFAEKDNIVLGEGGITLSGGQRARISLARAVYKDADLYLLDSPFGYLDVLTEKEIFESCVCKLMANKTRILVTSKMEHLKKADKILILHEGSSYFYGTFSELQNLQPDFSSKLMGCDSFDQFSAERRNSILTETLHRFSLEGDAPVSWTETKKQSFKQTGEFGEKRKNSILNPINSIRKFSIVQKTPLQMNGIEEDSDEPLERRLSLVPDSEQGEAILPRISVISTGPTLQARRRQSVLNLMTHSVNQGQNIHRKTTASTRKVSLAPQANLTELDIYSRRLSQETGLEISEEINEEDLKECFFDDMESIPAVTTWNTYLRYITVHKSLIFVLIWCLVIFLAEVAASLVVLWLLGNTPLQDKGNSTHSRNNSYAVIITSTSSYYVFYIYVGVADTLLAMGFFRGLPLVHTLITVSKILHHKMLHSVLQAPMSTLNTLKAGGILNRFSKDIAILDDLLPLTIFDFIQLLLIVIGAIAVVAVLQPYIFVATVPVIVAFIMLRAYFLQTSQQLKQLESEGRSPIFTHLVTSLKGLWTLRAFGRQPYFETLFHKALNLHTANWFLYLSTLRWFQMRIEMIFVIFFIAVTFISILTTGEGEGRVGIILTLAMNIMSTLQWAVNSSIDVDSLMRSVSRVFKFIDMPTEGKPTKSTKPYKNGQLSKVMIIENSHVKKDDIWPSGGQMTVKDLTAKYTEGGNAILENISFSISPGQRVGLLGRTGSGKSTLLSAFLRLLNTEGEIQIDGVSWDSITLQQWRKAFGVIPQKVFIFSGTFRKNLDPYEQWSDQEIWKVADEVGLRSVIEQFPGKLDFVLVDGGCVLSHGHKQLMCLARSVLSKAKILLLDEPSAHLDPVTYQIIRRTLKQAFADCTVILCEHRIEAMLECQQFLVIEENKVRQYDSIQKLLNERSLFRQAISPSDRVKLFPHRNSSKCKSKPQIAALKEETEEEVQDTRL
Put plainly: Effect upon CFTR chloride ion channel activity (YFP fluorescence quenching by iodide influx in FRT cells). Conditions: for Emax at 30 µM: FRT, 10 min, final concentration of 30 μM, reaction for 10 minutes, ratio based on the CFTR activity maximized by forskolin; for CFTR activity ratio, result in words: 30 μM, comment on Table 2. In kind it is cell-based. As for the experimental part: FRT cells expressing […] specific to human cystic fibrosis conductance transmembrane regulator (CFTR) and iodide ions are cultured in the Coon's modified F-12 culture medium for 48 hours on a 96-well plate. Each well of the plate containing the cultured cells is washed three times with 200 μl of PBS buffer, and then 100 μl of PBS buffer is added to each well. The indolizino[3,2-c]quinoline derivative according to each Example is introduced to each well to a final concentration of 30 μM, followed by reaction for 10 minutes. After the completion of the reaction, the 96-well is mounted to a FLUOstar Omega microplate reader (BMG LABTECH) and 100 μl of NaI solution is added to each well. Then, YFP fluorescence reduced by the iodide ions introduced to the cells through CFTR is recorded at an interval of 0.4 seconds for 24 seconds in total, thereby evaluating the effect of each compound upon CFTR activity.
The effect of each indolizino[3,2-c]quinoline derivative upon CFTR chloride ion channel activity is calculated as an activity ratio based on the CFTR activity maximized by a well-known CFTR agonist, forskolin.

SMILES strings stand for the structures.

Take `COC(=O)c1c2c3ccccc3nc(-c3cccc4ccccc34)c2n2ccccc12` [Example 32, Methyl 6-(naphthalene-1-yl)indolizino[3,2-c]quinoline-12-carboxylate]: the melting point was 245.8 to 246.2 °C.
Turning to `CCOC(=O)c1c2c3ccccc3nc(-c3ccc4ccccc4c3)c2n2ccccc12` [Example 39, Ethyl 6-(naphthalene-2-yl)indolizino[3,2-c]quinoline-12-carboxylate], the melting point fell in the range of 210.3 to 210.7 °C.
For `COC(=O)c1c2c3ccccc3nc(-c3ccc[nH]3)c2n2ccccc12` [Example 33, Methyl 6-(1H-pyrrol-2-yl)indolizino[3,2-c]quinoline-12-carboxylate], the melting point is 230.8 to 231.4 °C. The maximum response (Emax) at 30 µM in data set [1] amounted to 37%.
As to `COc1cc(OC)cc(-c2ccc3cc4c5ccccc5nc(-c5cccc6ccccc56)c4n3c2)c1` [Example 42, 9-(3,5-Dimethoxyphenyl)-6-(naphthalene-1-yl)indolizino[3,2-c]quinoline], the melting point fell in the range of 177.5 to 177.8 °C.
Molecule `Brc1ccc2cc3c4ccccc4nc(-c4ccco4)c3n2c1` [Example 29, 9-Bromo-6-(furna-2-yl)indolizino[3,2-c]quinoline] showed a melting point of 193.3 to 193.6 °C.
Take `c1ccc(-c2nc3ccccc3c3cc4ccccn4c23)cc1` [Example 6, 6-Phenylindolizino[3,2-c]quinoline]: the melting point fell in the range of 141.9 to 142.8 °C.
Molecule `Fc1ccc(-c2nc3ccccc3c3cc4ccccn4c23)cc1` [Example 2, 6-(4-Fluorophenyl)indolizino[3,2-c]quinoline] returned a melting point of 167 to 167.4 °C.
With `CCOC(=O)c1c2c3ccccc3nc(-c3cccc(OC)c3)c2n2ccccc12` [Example 37, Ethyl 6-(3-methoxyphenyl)indolizino[3,2-c]quinoline-12-carboxylate], the melting point lay in the range of 173.4 to 173.8 °C.
With `CCOC(=O)c1c2c3ccccc3nc(-c3ccc(OC)c(OC)c3)c2n2ccccc12` [Example 38, Ethyl 6-(3,4-dimethoxyphenyl)indolizino[3,2-c]quinoline-12-carboxylate], the melting point lay within 195.5 to 195.8 °C. Further, in data set [1], the Emax at 30 µM was determined as 31%.
`COc1cc(OC)cc(-c2nc3ccccc3c3cc4ccccn4c23)c1` [Example 10, 6-(3,5-Dimethoxyphenyl)indolizino[3,2-c]quinoline] yielded a melting point of 139.7 to 140.4 °C. Also, in data set [1], the “CFTR activity ratio, result in words” value was “high activity ratio” and the maximal effect (Emax) at 30 µM amounted to 63%.
`c1ccc2c(-c3nc4ccccc4c4cc5ccc(-c6ccoc6)cn5c34)cccc2c1` [Example 43, 9-(Furan-3-yl)-6-(naphthalene-1 yl)indolizino[3,2-c]quinoline] showed a melting point of 91.3 to 92 °C.
As for `O=[N+]([O-])c1ccc(-c2nc3ccccc3c3cc4ccccn4c23)cc1` [Example 5, 6-(4-Nitrophenyl)indolizino[3,2-c]quinoline], the melting point lay in the range of 246.3 to 246.5 °C. Besides, in data set [1], the “CFTR activity ratio, result in words” value is “high activity ratio” and the Emax at 30 µM was 93%.
For the molecule `Clc1cccc(-c2nc3ccccc3c3cc4ccccn4c23)c1` [Example 4, 6-(3-Chlorophenyl)indolizino[3,2-c]quinoline], the melting point was 124.3 to 125.3 °C.
Molecule `COC(=O)c1c2c3ccccc3nc(-c3ccc(Br)cc3)c2n2ccccc12` [Example 30, Methyl 6-(4-bromophenyl)indolizino[3,2-c]quinoline-12-carboxylate] had a melting point of 232.3 to 232.5 °C.
Same read-out and setting: next, `Cc1ccc(-c2nc3ccccc3c3cc4c(C)cccn4c23)cc1` [Example 20, 11-Methyl-6-(p-tolyl)indolizino[3,2-c]quinoline]: 162.5 to 163.1 °C.
`Cc1cccn2c1cc1c3ccccc3nc(-c3cccc(F)c3)c12` [Example 17, 6-(3-Fluorophenyl)-11-methylindolizino[3,2-c]quinoline]: the melting point was 176.1 to 176.5 °C. Moreover, the Emax at 30 µM in data set [1] turned out to be 50%.
On to `Brc1ccc(-c2nc3ccccc3c3cc4ccccn4c23)cc1` [Example 1, 6-(4-Bromophenyl)indolizino[3,2-c]quinoline], for which the melting point was in the range of 205.5 to 205.8 °C. In data set [1], the “CFTR activity ratio, result in words” value is “high activity ratio” and the Emax at 30 µM stood at 85%.
`Cc1ccc(-c2nc3ccccc3c3cc4ccc(Br)cn4c23)cc1` [Example 25, 9-Bromo-6-(p-tolyl)indolizino[3,2-c]quinolone] showed a melting point of 230.8 to 231.2 °C.
For the molecule `COc1ccc(-c2nc3ccccc3c3cc4c(C)cccn4c23)cc1OC` [Example 22, 6-(3,4-Dimethoxyphenyl)-11-methylindolizino[3,2-c]quinoline], the melting point lay within 162.8 to 163.3 °C.
The molecule `Clc1ccc(-c2nc3ccccc3c3cc4ccccn4c23)s1` [Example 15, 6-(5-Chlorothiophen-2-yl)indolizino[3,2-c]quinoline] yielded a melting point of 161.4 to 161.7 °C. In data set [1], the “CFTR activity ratio, result in words” value was “high activity ratio” and the Emax at 30 µM was 98%.
Turning to `CCOC(=O)c1c2c3ccccc3nc(-c3ccc([N+](=O)[O-])cc3)c2n2ccccc12` [Example 36, Ethyl 6-(4-nitrophenyl)indolizino[3,2-c]quinoline-12-carboxylate], the melting point is 245.8 to 246.1 °C.
Same read-out and setting: next, `Clc1ccc(-c2nc3ccccc3c3cc4ccccn4c23)cc1` [Example 3, 6-(4-Chlorophenyl)indolizino[3,2-c]quinoline]: 190.5 to 191 °C.
As for `COC(=O)c1c2c3ccccc3nc(-c3cc(OC)cc(OC)c3)c2n2ccccc12` [Example 31, Methyl 6-(3,5-dimethoxyphenyl)indolizino[3,2-c]quinoline-12-carboxylate], the melting point lay within 205.9 to 206.3 °C. Further, the “CFTR activity ratio, result in words” value in data set [1] was “high activity ratio”.
Molecule `COc1ccc(-c2nc3ccccc3c3cc4ccc(Br)cn4c23)cc1OC` [Example 26, 9-Bromo-6-(3,4-dimethoxyphenyl)indolizino[3,2-c]quinoline] returned a melting point of 188.5 to 189 °C.
Molecule `COc1cccc(-c2nc3ccccc3c3cc4c(C)cccn4c23)c1` [Example 19, 6-(3-Methoxyphenyl)-11-methylindolizino[3,2-c]quinoline] showed a melting point of 165 to 166 °C.
For the molecule `COc1ccc(-c2nc3ccccc3c3cc4ccccn4c23)cc1` [Example 7, 6-(4-Methoxyphenyl)indolizino[3,2-c]quinoline], the melting point was in the range of 164.3 to 164.7 °C.
`Cc1cccn2c1cc1c3ccccc3nc(-c3ccc([N+](=O)[O-])cc3)c12` [Example 18, 11-Methyl-6-(4-nitrophenyl)indolizino[3,2-c]quinoline] came in with a melting point of 259.7 to 260.4 °C.
Same read-out and setting: with `CCOC(=O)c1c2c3ccccc3nc(-c3cccc(F)c3)c2n2ccccc12` [Example 34, Ethyl 6-(3-fluorophenyl)indolizino[3,2-c]quinoline-12-carboxylate] the figure was 202.1 to 202.4 °C.
`COc1cc(OC)cc(-c2nc3ccccc3c3cc4c(C)cccn4c23)c1` [Example 21, 6-(3,5-Dimethoxyphenyl)-11-methylindolizino[3,2-c]quinoline] yielded a melting point of 185.8 to 186.4 °C. Also, in data set [1], the Emax at 30 µM was found to be 66%.
Molecule `COc1ccc(-c2nc3ccccc3c3cc4ccc(Br)cn4c23)cc1` [Example 24, 9-Bromo-6-(4-methoxyphenyl)indolizino[3,2-c]quinoline] came in with a melting point of 229.5 to 230 °C.
In turn, `COc1ccc(-c2nc3ccccc3c3cc4ccc(-c5ccc([N+](=O)[O-])cc5)cn4c23)cc1` [Example 41, 6-(4-Methoxyphenyl)-9-(4-nitrophenyl)indolizino[3,2-c]quinoline] displayed a melting point of 256 to 256.6 °C.
With `c1ccc2cc(-c3nc4ccccc4c4cc5ccccn5c34)ccc2c1` [Example 13, 6-(Naphthalen-2-yl)indolizino[3,2-c]quinoline], the melting point was in the range of 205.6 to 206.2 °C. Further, in data set [1], the “CFTR activity ratio, result in words” value is listed as “high activity ratio” and the Emax at 30 µM came to 83%.
In turn, `COc1ccc(-c2nc3ccccc3c3cc4ccccn4c23)cc1OC` [Example 11, 6-(3,4-Dimethoxyphenyl)indolizino[3,2-c]quinoline] had a melting point of 91.3 to 92 °C.
As for `Cc1ccc(-c2nc3ccccc3c3cc4ccccn4c23)cc1` [Example 9, 6-(p-Tolyl)indolizino[3,2-c]quinoline], the melting point is 85.3 to 86 °C.
As to `CCOC(=O)c1c2c3ccccc3nc(-c3cccc(Cl)c3)c2n2ccccc12` [Example 35], the melting point is 214.3 to 214.5 °C.
On to `Brc1ccc2cc3c4ccccc4nc(-c4ccc(Br)s4)c3n2c1` [Example 28, 9-Bromo-6-(5-bromothiophen-2-yl)indolizino[3,2-c]quinoline], for which the melting point was 223.3 to 223.7 °C.
`COc1cccc(-c2nc3ccccc3c3cc4ccccn4c23)c1` [Example 8, 6-(3-Methoxyphenyl)indolizino[3,2-c]quinoline] came in with a melting point of 174 to 174.4 °C.
As for `COc1ccc(-c2nc3ccccc3c3c(Br)c4ccccn4c23)cc1` [Example 44, 12-Bromo-6-(4-methoxyphenyl)indolizino[3,2-c]quinoline], the melting point was in the range of 221.6 to 221.9 °C.

Usually melting point stands for the temperature of the solid-liquid transition. A word on the Emax: it is the maximal effect, on the per cent scale that the assay sets.
